Experiment [1] relates to ZIKV-induced caspase 3/7 activity in hNPCs. Put plainly: Caspase 3/7 activity assay, ZIKV-infected hNPCs. In kind it is cell-based. The conditions noted are these: for IC50: read-out: Caspase 3 (IC50, uM) NPCs; for Emax: read-out: Caspase 3 (efficacy, %) NPCs. The method, boiled down: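 Human NPCs, SNB-19 cells or astrocytes seeded 16 h, compound added 30 min before ZIKV, then 6 h infection at 37 °C. Caspase-Glo 3/7 luminescence after 30 min at room temperature, normalized to uninfected cells (0%) and ZIKV-infected cells (100%).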

Experiment [2] deals with ZIKV-induced cell death in SNB-19 cells. Put plainly: ATP cell viability assay for ZIKV-induced cell death, SNB-19 cells. The class given is cell-based, human. In outline:
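The extent of cell death caused by ZIKV infection was determined from ATP levels. Cells grew in assay plates for 16 hours at 37° C. with 5% CO2, were then given ZIKV solution and kept under the same conditions for 72 hours. ATPlite reagent was applied for 15 minutes and luminescence was read on a ViewLux plate reader. Cell-free wells defined 100% killing and uninfected cell wells defined full viability.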

Where [3] appears, read: Homo sapiens, ZIKV-infected hNPCs.
Where [4] appears, read: ZIKV-infected SNB-19 cells, read-out: Cell viability (IC50, uM) SNB-19.
[5] abbreviates: Homo sapiens, ZIKV-infected SNB-19 cells, read-out: Cell viability (IC50, uM) SNB-19.
The mark [6] stands for this setting: Homo sapiens, SNB-19, following ZIKV infection, read-out: IC50 (μM) for improving cell viability, SNB-19.

“And” between values parts separate entries of the source, which are not always exact repeats. Identical values can stand only once. Like-named read-outs stand apart in the source and are kept apart here.

One may read the IC50 as the concentration at which inhibition is half-maximal. On to `Cc1cccc(C#Cc2ccccc2)n1` [MPEP, 2-Methyl-6-(phenylethynyl)pyridine], for which, in experiment [1] (setting [3]), the half-maximal inhibitory concentration (IC50) was 4.11 µM and the Emax was 96.1%. Also, in experiment [2] (ZIKV-infected SNB-19 cells), the “Cell viability (efficacy, %) SNB-19” value worked out at 0.0%.
Vitamin B12: in experiment [1] (ZIKV-infected hNPCs), the “Caspase 3 (efficacy, %) NPCs” value was 94.7% and 59.1%; the concentration for half-maximal inhibition (IC50) is 6.9 µM and 11.3 µM. Further, the IC50 in experiment [2] (setting [4]) was 0.12 µM.
As for `CN(C)CCCSc1ccccc1NC(=O)/C=C/c1ccccc1` [Cinanserin], in experiment [1] (setting [3]), the IC50 turned out to be 17.3 µM and the Emax was found to be 80.4%. The IC50 in experiment [2] (setting [5]) came to 19.5 µM. Besides, the “Cell viability (efficacy, %) SNB-19” value in experiment [2] (ZIKV-infected SNB-19 cells) is listed as 56.9%.
Regarding `Cc1cc(O)c2c(c1)C(=O)c1cc(O)cc(O)c1C2=O` [Emodin], in experiment [1] (setting [3]), the IC50 was 2.59 µM and the Emax stood at 82.1%. Further, the “Cell viability (efficacy, %) SNB-19” value in experiment [2] (ZIKV-infected SNB-19 cells) amounted to 0.0%.
As for Flurbiprofen axetil, the “Caspase 3 (efficacy, %) NPCs” value in experiment [1] (ZIKV-infected hNPCs) turned out to be 0.0%. In addition, the “Cell viability (efficacy, %) SNB-19” value in experiment [2] (ZIKV-infected SNB-19 cells) is given as 0.0%.
Consider `O=C(O)c1ccccc1Nc1cccc(C(F)(F)F)c1` [Flufenamic acid], for which, in experiment [1] (setting [3]), the half-inhibitory concentration (IC50) turned out to be 17.3 µM and the Emax is 68.1%. For the same compound, the “Cell viability (efficacy, %) SNB-19” value in experiment [2] (ZIKV-infected SNB-19 cells) is given as 0.0%.
Consider `C[C@H](NC(=O)C(=O)Nc1ccccc1C(C)(C)C)C(=O)N[C@@H](CC(=O)O)C(=O)COc1c(F)c(F)cc(F)c1F` [Emricasan], for which the 50% inhibitory concentration (IC50) in experiment [1] (setting [3]) is 0.37 µM; in experiment [2] (setting [6]) it was 0.87 µM; in experiment [2] (Homo sapiens, SNB-19 cells, three ZIKV strains MR766, FSS13025, PRVABC59, read-out: IC50 in the cell viability assay), 0.13 to 0.9 µM; in experiment [2] (setting [5]) it was 0.87 µM. Moreover, the Emax in experiment [1] (setting [3]) worked out at 85.3%. Further, the “Cell viability (efficacy, %) SNB-19” value in experiment [2] (ZIKV-infected SNB-19 cells) is on record as 194%.
Regarding `Cc1cccc(/C=C/c2ccccc2)n1` [SIB 1893], in experiment [1] (ZIKV-infected hNPCs), the “Caspase 3 (efficacy, %) NPCs” value was 95.2% and the IC50 turned out to be 8.69 µM. Also, in experiment [2] (ZIKV-infected SNB-19 cells), the “Cell viability (efficacy, %) SNB-19” value amounted to 0.0%.
For `O=C(O)CCC(=O)c1ccc(-c2ccccc2)cc1` [Fenbufen], in experiment [1] (setting [3]), the half-inhibitory concentration (IC50) amounted to 19.5 µM and the Emax came out at 72.5%. Besides, the “Cell viability (efficacy, %) SNB-19” value in experiment [2] (ZIKV-infected SNB-19 cells) came to 0.0%.
In the case of `COc1ccc(-c2cc(=S)ss2)cc1` [Anethole trithione], in experiment [1] (setting [3]), the IC50 was determined as 13 µM and the Emax turned out to be 70.3%. In addition, in experiment [2] (ZIKV-infected SNB-19 cells), the “Cell viability (efficacy, %) SNB-19” value is recorded as 0.0%.
Taken in the same sequence, the figures for `O=C(Oc1ccccc1)c1cccc(C(=O)Oc2ccccc2)c1` [Diphenyl isophthalate] were 4.47 µM, 89.4% and 0.0%.
As to `O=C(Nc1ccc(C(=O)O)c(O)c1)c1ccccc1` [Benzoylpas], in experiment [1] (setting [3]), the IC50 turned out to be 4.89 µM and the Emax stood at 85.4%. The “Cell viability (efficacy, %) SNB-19” value in experiment [2] (ZIKV-infected SNB-19 cells) worked out at 0.0%.
As to `CC(C(=O)O)c1ccc(C(=O)c2cccs2)cc1` (stereo not shown) [Suprofen], in experiment [1] (setting [3]), the IC50 came out at 15.5 µM and the Emax worked out at 59.1%. For the same compound, the “Cell viability (efficacy, %) SNB-19” value in experiment [2] (ZIKV-infected SNB-19 cells) is given as 0.0%.
The matching figures for `COc1cccc(-c2ccc(NC(=O)C3=C(C(=O)O)CCC3)c(F)c2)c1` [Vidofludimus]: 2.45 µM, 87.8% and 0.0%.
Taken in the same sequence, the figures for `CC(=O)Oc1cccc2c1C(=O)c1c(OC(C)=O)cc(C(=O)O)cc1C2=O` [Diacerein] were 15.5 µM, 56.5% and 0.0%.
Turning to `O=C1NC(=O)C(=Cc2ccc(-c3ccc(F)cc3)o2)S1` [CAY10505], in experiment [1] (ZIKV-infected hNPCs), the “Caspase 3 (efficacy, %) NPCs” value was 83.5% and the 50% inhibitory concentration (IC50) came to 10.9 µM. Moreover, the “Cell viability (efficacy, %) SNB-19” value in experiment [2] (ZIKV-infected SNB-19 cells) came out at 0.0%.
As to `O=C(Nc1ccc([N+](=O)[O-])cc1Cl)c1cc(Cl)ccc1O` [Niclosamide], the IC50 in experiment [1] (setting [3]) was determined as 1.84 µM; in experiment [2] (setting [6]), 1.95 µM; in experiment [2] (setting [5]) it was 1.95 µM. The Emax in experiment [1] (setting [3]) was 87.5%. For the same compound, the “Cell viability (efficacy, %) SNB-19” value in experiment [2] (ZIKV-infected SNB-19 cells) stood at 97.3%.
Take `N#CC1(c2ccc(NC(=O)c3cccnc3NCc3ccncc3)cc2)CCCC1` [Apatinib]: the Emax in experiment [1] (setting [3]) is 0%. The “Cell viability (efficacy, %) SNB-19” value in experiment [2] (ZIKV-infected SNB-19 cells) turned out to be 0.0%.
Regarding `Cc1ccc(O)c(-n2nc3ccccc3n2)c1` [2-(2H-Benzotriazol-2-yl)-4-methylphenol], in experiment [1] (setting [3]), the half-inhibitory concentration (IC50) was 4.89 µM and the Emax came to 77.6%. The “Cell viability (efficacy, %) SNB-19” value in experiment [2] (ZIKV-infected SNB-19 cells) is listed as 0.0%.
The matching figures for `CCOCCOC(=O)C=Cc1ccc(OC)cc1` [2-Ethoxylethyl-p-methoxycinnamate]: 18.4 µM, 56% and 0.0%.
In the case of `CC(=O)Nc1ccc([C@H](C)C(=O)Nc2ncc(C(C)C)s2)cc1` [PHA-690509], in experiment [1] (ZIKV-infected hNPCs), the “Caspase 3 (efficacy, %) NPCs” value came out at 73.0%. Besides, the concentration for half-maximal inhibition (IC50) in experiment [1] (ZIKV-infected hNPCs) amounted to 19.5 µM; in experiment [2] (setting [4]) it was 10.9 µM; in experiment [2] (following ZIKV infection, read-out: IC50 (μM) for improving cell viability, SNB-19), 10.1 µM. For the same compound, the “Cell viability (efficacy, %) SNB-19” value in experiment [2] (ZIKV-infected SNB-19 cells) is given as 165%.
On to `O=C(c1ccccc1)c1ccc2n1CCC2C(=O)O` (stereo not shown) [Ketorolac tromethamine], for which, in experiment [1] (setting [3]), the IC50 turned out to be 10.3 µM and the Emax amounted to 75%. Further, in experiment [2] (ZIKV-infected SNB-19 cells), the “Cell viability (efficacy, %) SNB-19” value is recorded as 0.0%.
Taken in the same sequence, the figures for `c1ccc(CCNc2nc(-c3ccccc3)cs2)cc1` [Fanetizole] were 14.6 µM, 81.8% and 0.0%.
Taken in the same sequence, the figures for `CCC(C(=O)O)c1ccc(N2Cc3ccccc3C2=O)cc1` (stereo not shown) [Indobufen] were 6.15 µM, 81.3% and 0.0%.
`O=S(=O)(O)c1ccc2[nH]c(-c3ccccc3)nc2c1` [Ensulizole]: in experiment [1] (Homo sapiens), the IC50 stood at 1.38 µM and the Emax was found to be 80.6%. Also, in experiment [2] (ZIKV-infected SNB-19 cells), the “Cell viability (efficacy, %) SNB-19” value stood at 0.0%.
In the case of `Nc1nc2ccc([N+](=O)[O-])cc2s1` [2-Amino-6-nitrobenzothiazole], in experiment [1] (setting [3]), the IC50 came out at 56.2 µM and the Emax was 57.1%. The “Cell viability (efficacy, %) SNB-19” value in experiment [2] (ZIKV-infected SNB-19 cells) was found to be 0.0%.
Consider `O=C(OCc1ccccc1)c1ccc(O)cc1` [Benzylparaben], for which, in experiment [1] (setting [3]), the IC50 came to 15.5 µM and the Emax was found to be 56%. Also, the “Cell viability (efficacy, %) SNB-19” value in experiment [2] (ZIKV-infected SNB-19 cells) is reported as 0.0%.
Taken in the same sequence, the figures for `c1ccc2[nH]c(-c3cscn3)nc2c1` [Thiabendazole] were 9.75 µM, 83.4% and 0.0%.
The matching figures for `O=C(O)c1ccccc1NCCc1ccccc1` [Enfenamic acid]: 21.8 µM, 47.1% and 0.0%.
The matching figures for `CC(C(=O)O)c1ccc(C(=O)c2ccccc2)s1` (stereo not shown) [Tiaprofenic acid]: 8.69 µM, 86.7% and 0.0%.
For the compound `C/C1=C2/[N-][C@H]([C@H](CC(N)=O)[C@@]2(C)CCC(=O)NC[C@@H](C)OP(=O)([O-])O[C@H]2[C@@H](O)[C@@H](n3cnc4cc(C)c(C)cc43)O[C@@H]2CO)[C@]2(C)N=C(/C(C)=C3N=C(/C=C4N=C1[C@@H](CCC(N)=O)C\4(C)C)[C@@H](CCC(N)=O)[C@]\3(C)CC(N)=O)[C@@H](CCC(N)=O)[C@]2(C)CC(N)=O.[Co+3].[OH-]` [Hydroxocobalamin], in experiment [1] (ZIKV-infected hNPCs), the “Caspase 3 (efficacy, %) NPCs” value amounted to 67.4% and the half-maximal inhibitory concentration (IC50) was 0.87 µM. For the same compound, in experiment [2] (ZIKV-infected SNB-19 cells), the “Cell viability (efficacy, %) SNB-19” value is on record as 0.0%.
As for `O=C1c2ccccc2C(=O)c2c1ccc(O)c2O` [Alizarin], in experiment [1] (setting [3]), the IC50 was 21.8 µM and the Emax came to 58.5%. Further, the “Cell viability (efficacy, %) SNB-19” value in experiment [2] (ZIKV-infected SNB-19 cells) was 0.0%.
The matching figures for `CN1CCN(c2cc3c(nn2)Oc2ccccc2N3C)CC1` [Pipofezine]: 12 µM, 47.7% and 0.0%.
Turning to `O=C(O)c1cc([N+](=O)[O-])ccc1NCCCc1ccccc1` [5-Nitro-2-(3-phenylpropylamino)benzoic acid], in experiment [1] (setting [3]), the IC50 was determined as 8.69 µM and the Emax was determined as 59.8%. The “Cell viability (efficacy, %) SNB-19” value in experiment [2] (ZIKV-infected SNB-19 cells) was 0.0%.
As for `CN1CC(=O)NC1=NC(=O)Nc1cccc(Cl)c1` [Fenobam], in experiment [1] (ZIKV-infected hNPCs), the “Caspase 3 (efficacy, %) NPCs” value is 108% and the IC50 was found to be 5.48 µM. Further, the “Cell viability (efficacy, %) SNB-19” value in experiment [2] (ZIKV-infected SNB-19 cells) amounted to 60.5%. In addition, the concentration for half-maximal inhibition (IC50) in experiment [2] (setting [4]) turned out to be 1.73 µM.
On to `O=C1NC(=O)/C(=C/c2ccc(-c3ccc(F)cc3O)o2)S1` [AS-252424], for which, in experiment [1] (ZIKV-infected hNPCs), the “Caspase 3 (efficacy, %) NPCs” value is reported as 52.3% and the IC50 was found to be 1.64 µM. The “Cell viability (efficacy, %) SNB-19” value in experiment [2] (ZIKV-infected SNB-19 cells) was 0.0%.

The values above are taken from patent publication US10940188B2, “Compounds and methods for treatment and prevention of Flavivirus infection” (priority 2016, dated 2021).
